Results: patent publication US9265845B2, “Imaging methods using engineered integrin binding peptides” (The Board of Trustees of the Leland Stanford Junior …, priority 2006, dated 2016)
No end group written: not given here.

Key:
[1] = Stability in human serum at 37° C., reversed-phase HPLC; type: in vitro ADME
Description: (§1) The stability of the knottin peptide 2.5D upon exposure to human or mouse serum at 37° C. was measured. Reversed-phase HPLC was used to quantify the amount of intact knottin peptide remaining at various times post incubation.
(§2) Nonradioactive mock-PET tracers are incubated with mouse and human serum for various time points at 37° C., and aliquots are acidified and flash frozen. The aliquots are then thawed and microcentrifuged at high speeds to remove aggregates. The soluble fraction is passed through a Sep-Pak C18 cartridge (Waters Corp), and rinsed several times with water containing 0.1% TFA (solvent A). The cartridge-bound PET-tracers are eluted with 90% acetonitrile containing 0.1% TFA, lyophilized, and resuspended in solvent A. The solution is passed through a NANOSEP (Pall Corp) 10 kDa cutoff filter and analyzed by reversed-phase HPLC to determine the amount of polypeptide-conjugate remaining.

[2] = test system: U87MG glioblastoma cells; experiment: Blocking of U87MG cell adhesion to fibronectin-coated plates; type: cell-based
Description: (§3) The present engineered peptides may be used in a variety of ways. If the peptides are attached to a surface, they may be used to attract/recruit cells to grow on the surface. For example, the present peptides may be applied to prosthetic devices, implants, bone grafts, and the like to promote tissue growth and healing at the site. They may be attached to culture dishes and promote attachment and differentiation of cells in culture. In addition, the present engineered peptides may be used to modulate cell binding to selected integrins such as α5β1, αvβ3 and αvβ5, particularly αvβ3, by adding the peptides to a cell culture to prevent cells expressing these integrins from adhering to a substrate. […] Also, the present 2.5F, 2.5D and 1.5B peptides were tested for blocking adhesion of U87MG glioblastoma cells to fibronectin-coated plates.
(§4) In another experiment, the ability of engineered knottin peptides to block U87MG cell adhesion to vitronectin- and fibronectin-coated microtiter plates. Vitronectin is a natural ligand for several integrins, including αvβ3 and αvβ5. The RGD-containing peptides were all able to inhibit U87MG cell adhesion to vitronectin-coated plates in a dose-responsive manner. […] Fibronectin also binds to several integrins, (including αvβ3 and α5β1), but the α5β1 integrin receptor is generally selective for fibronectin.

[3] = in vitro; type: in vitro ADME; conditions: mouse serum, 37° C., read-out: peptide remaining
Description: Their larger size (˜3-4 kDa) and enhanced affinity compared to RGD-based cyclic peptides confer enhanced pharmacokinetics and biodistribution for molecular imaging and therapeutic applications. This is described in connection with FIG. 8. These RGD-miniproteins are small enough to allow for chemical synthesis and site-specific conjugation of imaging probes, radioisotopes, or chemotherapeutic agents. Furthermore, they can easily be chemically modified to further improve in vivo properties if necessary. […] The tumor is indicated by an arrow. The near infrared fluorescent Cy5.5 label study provides guidance for the preparation of these polypeptides as ^18F and ^64Cu-labeled PET imaging probes. […]
as §1
as §2, with “The aliquots are then thawed and microcentrifuged at high speeds to remove aggregates. The soluble fraction is passed through a Sep-Pak C18 cartridge (Waters Corp), and rinsed several times with water containing 0.1% TFA (solvent A).” left out

[4] = test system: U87MG glioblastoma cells; experiment: Blocking of U87MG cell adhesion to vitronectin-coated plates; type: cell-based; conditions: vitronectin-coated plates
Description: as §3, §4
Whether the engineered AgRP peptides could block vitronectin-mediated adhesion to the U87MG cells was tested using an analogous assay. […] The AgRP peptides may not effectively block U87MG adhesion compared to the K562-αvβ3 cells because the αvβ5 integrins co-expressed on the surface of the U87MG cells could also contribute to vitronectin-mediated adhesion and compensate for the loss of αvβ3 integrin function.

[5] = test system: U87MG tumor; experiment: MicroPET imaging and biodistribution of radiolabeled peptides in U87MG tumor-bearing mice; type: in vivo, mouse; conditions: 64Cu-DOTA-labeled peptides, compared to 64Cu-DOTA-c(RGDyK)
Description: MicroPET imaging of tumor-bearing mice is performed on a microPET R4 rodent model scanner (Concorde Microsystems Inc, Knoxyille, Tenn.). U87MG tumor bearing mice are injected with PET imaging agent via the tail vein. At various times post injection, the mice are anesthetized with 2% isoflurane, and 10 min static scans are obtained. Images are reconstructed by a two-dimensional ordered expectation maximum subset algorithm as previously described. Regions of interest (ROI) are drawn over the tumor on decay corrected whole body images and ROI derived % injected dose per gram of tissue is determined. Statistical analysis is performed using the student's t-test for unpaired data. A 95% confidence level is used to determine statistical significance.
Female athymic mice bearing U87MG tumors were injected with 80-150 μCi of ^64Cu-DOTA-knottin 2.5D or 7-9 μCi of [^18F]-FB-E[knottin 2.5D]. Static images were taken at various timepoints post injection using a microPET R4 rodent model scanner (Concorde Microsystems Inc, Knoxyille, Tenn.). […] Uptake was also observed in the kidney as both probes cleared through the bladder.
Mice are sacrificed by exanguinations at various time points postinjection. Blood, tumor and the major organs and tissues are collected, wet-weighed and measured in a γ-counter. The % injected dose per gram is determined for each sample. For each mouse, radioactivity of the tissue samples is calibrated against a known aliquot of the injectate. Values are reported as the mean±standard deviation.
The following Table 10 quantifies the ^64Cu-DOTA knottin uptake by direct tissue sampling of the mice up to 24 hours post injection and is reported in % ID (percent injected dose)/gram. Similar results were obtained with [^18F]-FB-E[knottin 2.5D].
A U87MG glioblastoma xenograft mouse model was used. U87MG cells were maintained at 37° C. in a humidified atmosphere containing 5% CO2 in Dulbecco's modified eagle medium, 10% heat-inactivated fetal bovine serum, and penicillin-streptomycin (all from Invitrogen). Animal procedures were carried out according to a protocol by Stanford University Administrative Panels on Laboratory Animal Care. Female athymic nude mice (nu/nu), obtained at 4-6 weeks of age (Charles River Laboratories, Inc.), were injected subcutaneously in the right or left shoulder with 2×10^7 U87MG glioblastoma cells suspended in 100 μL of PBS. Mice were used for in vivo imaging studies when their tumors reached approximately 8 to 10 millimeters in diameter.
U87MG tumor-bearing mice (n=3 or more for each probe) were injected with ˜100 μCi of ^64Cu-DOTA-conjugated peptides via the tail vein and imaged with a microPET R4 rodent model scanner (Siemens Medical) using 3 or 5 min static scans. […] Images were reconstructed by a two dimensional ordered expectation maximum subset algorithm and calibrated as previously described (Wu, Y, Zhang, X, Xiong, Z, et al. microPET imaging of glioma integrin {alpha}v{beta}3 expression using (64)Cu-labeled tetrameric RGD peptide. J Nucl Med 2005; 46:1707-18). ROIs were drawn over the tumor on decay-corrected whole body images using ASIPro VM software (Siemens Medical). The mean counts per pixel per minute were obtained from the ROI and converted to counts per milliliter per minute with a calibration constant. ROIs were converted to counts/g/min, and % ID/g values were determined assuming a tissue density of 1 g/mL. No attenuation correction was performed.

[6] = biological target: αvβ3 integrin (Homo sapiens, UniProt P05106+P06756); experiment: Competition of 125I-echistatin to detergent-solubilized plate-coated integrin; type: binding; conditions: 0.06 nM 125I echistatin, 5 nM and 50 nM peptide
Description: (§5) FIG. 10A through FIG. 10D is a series of histograms showing binding specificities to integrins αvβ3, αvβ5, α5β1, and αiibβ3 for engineered EETI-RGD peptides compared to controls. Error bars represent experiments performed in triplicate. Competition binding of 0.06 nM ^125I echistatin with 5 nM (black bars) and 50 nM (grey bars) unlabeled peptide to plate-coated integrins was measured. […] The engineered peptides have very little binding to αiibβ3 integrin.
(§6) This was done by competition of ^125I-echistatin to detergent-solubilized integrin receptors coated onto microtiter plates (see FIG. 10). […] This is consistent with previous studies which have shown αv integrin receptors can accommodate a wide range of RGD-containing cyclic structures. […] However, since α5β1 integrins are expressed on many tumors and are all involved in mediating angiogenesis and metastasis, a broad spectrum agent that targets all three integrins will be useful for diagnostic and therapeutic applications. With the exception of echistatin, all of the RGD-containing peptides bound weakly to the αiibβ3 receptor, showing the specificity of the present peptides for the αv and α5-containing integrin heterodimers. This characteristic is valuable for molecular imaging and therapeutic applications, since binding to αiibβ3 on platelet cells prevents blood clotting and would lead to non-specific in vivo effects.

[7] = biological target: α5β1 integrin (Homo sapiens, UniProt P05556+P08648); experiment: as above; type: binding; conditions: 0.06 nM 125I echistatin, 5 nM and 50 nM peptide
Description: as §5, §6

[8] = biological target: αvβ5 integrin (Homo sapiens, UniProt P06756+P18084); experiment: as above; type: binding; conditions: 0.06 nM 125I echistatin, 5 nM and 50 nM peptide
Description: as §5, §6

[9] = test system: αvβ3 and αvβ5 integrins; conditions: inhibiting cell adhesion mediated by αvβ3 and αvβ5 integrins; cited from earlier work
[10] = test system: α5β1 expressing cells; conditions: inhibiting attachment of α5β1 expressing cells to fibronectin; cited from earlier work
[11] = biological target: αiibβ3 integrin (Homo sapiens, UniProt P05106+P08514); experiment: Competition of 125I-echistatin to detergent-solubilized plate-coated integrin; type: binding; conditions: 0.06 nM 125I echistatin, 5 nM and 50 nM peptide
Description: as §5, §6

[12] = biological target: T1, αvβ3 integrin on U87MG glioblastoma cells (Homo sapiens, UniProt P05106+P06756); experiment: 125I-echistatin competition binding to U87MG glioblastoma cells
T1 construct: host or cells: U87MG glioblastoma cells
Description: FIG. 9 is a graph showing normalized competition plotted against peptide concentration in an integrin-binding assay on U87MG glioblastoma cells.
U87MG glioblastoma cells, which express ˜10^5 αvβ3 integrin receptors per cell, were used for these studies. […] An EETI-based polypeptide with a scrambled RDG amino acid sequence, designated FN-RDG, served as a negative control.
Half-maximal inhibitory concentrations (IC50) […] of data measured on at least three separate days. Data for unlabeled and Cy5.5-labeled peptides are shown. Site-specific labeling of RGD miniproteins with a near-infrared optical imaging probe: The free N-terminal amine of our polypeptides was used for site-specific attachment of Cy5.5, a near infrared imaging probe.
An αvβ3 integrin receptor binding assay is performed to determine the relative affinities of the mock-PET tracers compared to their unlabeled polypeptides. Briefly, 2×10^5 U87MG glioblastoma cells are incubated with 0.06 nM ^125I-echistatin in integrin binding buffer (25 mM Tris-HCl, pH 7.4, 150 mM NaCl2 1 mM CaCl2 1 mM MgCl2, 1 mM MnCl2, 0.1% BSA), in the presence of increasing concentrations of mock-PET tracers at room temperature. After incubation for 3 h, cells are pelleted by centrifugation at 1500 RPM and washed three times in binding buffer to remove unbound ligands. The radioactivity remaining in the cell pellet is measured by γ counting. IC50 values are determined by plotting the % competition and using a four-point binding equation (Kaleidagraph) to fit the data.

[13] = test system: fibronectin cell adhesion; conditions: cited from earlier work

For `CC(C)[C@@H]1NC(=O)[C@@H]2CSSC[C@H](NC(=O)CN)C(=O)N3CCC[C@H]3C(=O)N[C@@H](CCC(N)=O)C(=O)NCC(=O)N[C@@H](CCCNC(=N)N)C(=O)NCC(=O)N[C@@H](CC(=O)O)C(=O)N[C@@H](Cc3c[nH]c4ccccc34)C(=O)N[C@@H](C)C(=O)N3CCC[C@H]3C(=O)N[C@@H]([C@@H](C)O)C(=O)N[C@@H](CO)C(=O)N[C@H]3CSSC[C@H](NC1=O)C(=O)NCC(=O)N1CCC[C@H]1C(=O)N[C@@H](CC(N)=O)C(=O)NCC(=O)N[C@@H](Cc1ccccc1)C(=O)N[C@H](C(=O)NCC(=O)O)CSSC[C@H](NC(=O)[C@H](CC(=O)O)NC(=O)[C@H](CO)NC(=O)[C@H](CC(=O)O)NC(=O)[C@H](CCC(N)=O)NC(=O)[C@H](CO)NC3=O)C(=O)N[C@@H](CCCNC(=N)N)C(=O)N[C@@H](C)C(=O)NCC(=O)N2` [2.5D], the remaining at 24 h ([1]; 24 h, read-out: peptide remaining) was ~90%, the peptide remaining ([1]; 96 h) was “approximately 70%” and the “blocking of U87MG cell adhesion to fibronectin, in words” value [2] was “only echistatin and polypeptide 2.5F blocked adhesion”. For the same compound, the remaining at 24 h ([3]; 24 h) was ~90%, the remaining at 96 h ([3]; 96 h) was ~70% and the “blocking of U87MG cell adhesion to vitronectin, in words” value [4] was “blocked adhesion better than controls”. For the same compound, the “liver uptake, in words” value [5] was “lower liver uptake”, the “binding to αvβ3 integrin, in words” value [6] was “strongest levels of binding” and the “binding to α5β1 integrin, in words” value [7] was “only minimal binding”. For the same compound, the “binding to αvβ5 integrin, in words” value [8] was “strongest levels of binding”.
For “ACDCRGDCFCG (disulfide (positions not given here); also: two disulfide bonds, pairing not given here)”, the “fold more effective than comparable peptides with one disulfide bond” value [9] is listed as 20 fold and the “fold more potent than linear RGD peptides” value [9] is listed as 200 fold.
For CRGDCL (also: cyclic), the “fold more potent than linear RGD hexapeptides” value [10] is listed as 10 fold.
With “FN-RDG: EETI-based polypeptide with a scrambled RDG amino acid sequence, negative control (GCVTGRDGSPASSCSQDSDCLAGCVCGPNGFCG)” the “blocking of U87MG cell adhesion to fibronectin, in words” value [2] was “not able to inhibit”, the “blocking of U87MG cell adhesion to vitronectin, in words” value [4] was “not able to inhibit” and the “binding to αvβ3 integrin, in words” value [6] was “did not bind”. The “binding to α5β1 integrin, in words” value [7] was “did not bind”, the “binding to αvβ5 integrin, in words” value [8] was “did not bind” and the “binding to αiibβ3 integrin, in words” value [11] was “did not bind”. The “binding to U87MG cells / competition with 125I-echistatin, in words” value [12] was “not able to compete”.
In the case of GRGD, the IC50 [13] is listed as 1.08 mM.
